Test results reported in ChEMBL document CHEMBL1133879, “Nicotinamide N-oxides as CXCR2 antagonists” (Bioorg Med Chem Lett, 2001).

Experiments:
[1] = target: T1, Endothelin receptor type B (Homo sapiens) (UniProt P24530); experiment: Displacement of [125I]endothelin from CHO cell membrane expressing human Endothelin B receptor; type: cell membranes; parameters: concentration or dose not given beside the values; settings: concentration not given here
T1 sequence (whole entry): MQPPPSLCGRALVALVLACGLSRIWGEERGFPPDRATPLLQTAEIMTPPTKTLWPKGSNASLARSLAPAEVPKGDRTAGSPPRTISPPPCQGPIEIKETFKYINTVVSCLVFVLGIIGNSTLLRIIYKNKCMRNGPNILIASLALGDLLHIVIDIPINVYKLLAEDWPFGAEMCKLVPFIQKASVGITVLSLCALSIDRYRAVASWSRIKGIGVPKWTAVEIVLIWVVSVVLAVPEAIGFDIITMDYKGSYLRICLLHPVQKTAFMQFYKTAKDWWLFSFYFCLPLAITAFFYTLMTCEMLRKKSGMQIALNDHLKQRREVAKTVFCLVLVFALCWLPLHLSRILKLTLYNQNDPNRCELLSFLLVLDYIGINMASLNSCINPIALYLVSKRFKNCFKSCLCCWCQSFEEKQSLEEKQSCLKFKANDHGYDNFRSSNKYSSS

[2] = target: T2, C-X-C chemokine receptor type 2 (Homo sapiens, UniProt P25025); experiment: Evaluated using an SPA assay with recombinant human [125I]IL-8 and membranes prepared from Sf9 cells expressing human CXCR2
T2 sequence (P25025 whole entry): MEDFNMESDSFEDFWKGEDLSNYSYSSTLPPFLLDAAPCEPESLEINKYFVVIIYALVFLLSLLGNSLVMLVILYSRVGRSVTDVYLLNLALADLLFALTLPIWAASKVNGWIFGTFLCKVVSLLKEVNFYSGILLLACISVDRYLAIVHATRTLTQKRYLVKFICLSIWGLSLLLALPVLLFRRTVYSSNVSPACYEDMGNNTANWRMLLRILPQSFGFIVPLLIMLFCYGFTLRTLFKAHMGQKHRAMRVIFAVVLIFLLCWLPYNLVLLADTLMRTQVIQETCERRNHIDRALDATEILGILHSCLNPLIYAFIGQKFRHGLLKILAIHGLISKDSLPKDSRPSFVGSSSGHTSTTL

Homo sapiens [3] = organism: Homo sapiens; experiment: Ability to block GRO-alpha driven human neutrophil chemotaxis; type: functional, organism-based
Homo sapiens [4] = organism: Homo sapiens; experiment: Functional selectivity was assessed in a neutrophil chemotaxis assay using N-formyl-methionyl-leucyl-phenylalanine (FMLP); type: organism-based
[5] = target: T3, Calcitonin receptor (Homo sapiens) (UniProt P30988); experiment: Displacement of [125I]calcitonin from T-47D (human breast cancer) cell membrane expressing human calcitonin receptor; type: cell membranes; settings: T47D; concentration not given here
T3 sequence (whole entry): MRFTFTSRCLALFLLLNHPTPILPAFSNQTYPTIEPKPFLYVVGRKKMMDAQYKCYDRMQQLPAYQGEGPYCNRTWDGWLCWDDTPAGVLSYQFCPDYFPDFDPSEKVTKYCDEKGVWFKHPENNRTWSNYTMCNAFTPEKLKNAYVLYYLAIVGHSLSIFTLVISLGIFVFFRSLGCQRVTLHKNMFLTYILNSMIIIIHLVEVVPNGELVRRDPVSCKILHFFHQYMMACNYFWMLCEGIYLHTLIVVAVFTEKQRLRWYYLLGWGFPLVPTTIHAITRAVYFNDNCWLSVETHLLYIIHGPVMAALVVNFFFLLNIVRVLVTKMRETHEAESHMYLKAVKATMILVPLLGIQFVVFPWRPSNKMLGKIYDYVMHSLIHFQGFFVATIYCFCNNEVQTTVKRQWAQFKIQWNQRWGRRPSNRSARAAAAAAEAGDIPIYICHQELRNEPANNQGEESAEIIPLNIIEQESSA

[6] = target: T4, Neuropeptide Y receptor type 1 (Homo sapiens) (UniProt P25929); experiment: Displacement of [125I]-peptide YY (PYY) from SK-N-MC (human neuroblastoma) cell membrane expressing human Neuropeptide Y receptor type 1; parameters: concentration or dose not given beside the values; settings: concentration not given here
T4 sequence (whole entry): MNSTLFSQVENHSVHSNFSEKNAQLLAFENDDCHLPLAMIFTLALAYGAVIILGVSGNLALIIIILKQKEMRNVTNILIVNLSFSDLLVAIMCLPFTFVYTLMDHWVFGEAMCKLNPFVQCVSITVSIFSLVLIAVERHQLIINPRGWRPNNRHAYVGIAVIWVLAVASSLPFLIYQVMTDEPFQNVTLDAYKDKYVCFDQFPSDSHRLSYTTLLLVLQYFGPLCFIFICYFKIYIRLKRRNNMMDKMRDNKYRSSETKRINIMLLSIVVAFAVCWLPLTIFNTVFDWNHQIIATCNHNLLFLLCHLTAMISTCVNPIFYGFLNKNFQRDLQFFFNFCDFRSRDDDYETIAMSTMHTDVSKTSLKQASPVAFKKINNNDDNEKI

[7] = target: T5, C-X-C chemokine receptor type 1 (Homo sapiens) (UniProt P25024); experiment: Displacement of [125I]IL-8 from CHO cell membrane expressing human CXCR1 receptor at a concentration of 20 uM; type: cell membranes
T5 sequence (whole entry): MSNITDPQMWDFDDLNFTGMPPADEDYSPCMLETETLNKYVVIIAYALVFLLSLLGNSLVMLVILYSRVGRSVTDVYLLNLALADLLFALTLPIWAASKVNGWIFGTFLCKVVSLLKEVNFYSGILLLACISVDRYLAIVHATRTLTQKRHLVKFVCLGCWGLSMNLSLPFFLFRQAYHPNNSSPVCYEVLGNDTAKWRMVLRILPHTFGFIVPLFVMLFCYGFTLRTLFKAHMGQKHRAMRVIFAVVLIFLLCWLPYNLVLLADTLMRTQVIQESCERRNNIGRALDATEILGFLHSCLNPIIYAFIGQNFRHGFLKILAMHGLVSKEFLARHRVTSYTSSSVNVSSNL

[8] = target: T6, C-X-C chemokine receptor type 2 (Homo sapiens) (UniProt P25025); experiment: Displacement of [125I]IL-8 from CHO cell membrane expressing human CXCR2 receptor at a concentration of 20 uM; type: cell membranes
T6 sequence (whole entry): T2 sequence (P25025 whole entry)

[9] = target: T7, Gastrin/cholecystokinin type B receptor (Homo sapiens) (UniProt P32239); experiment: Displacement of [3H]CCK-8 from NIH3T3 (mouse embryo cell membrane ) expressing human cholecystokinin CCKB receptor; type: cell membranes; parameters: concentration or dose not given beside the values; settings: concentration not given here
T7 sequence (whole entry): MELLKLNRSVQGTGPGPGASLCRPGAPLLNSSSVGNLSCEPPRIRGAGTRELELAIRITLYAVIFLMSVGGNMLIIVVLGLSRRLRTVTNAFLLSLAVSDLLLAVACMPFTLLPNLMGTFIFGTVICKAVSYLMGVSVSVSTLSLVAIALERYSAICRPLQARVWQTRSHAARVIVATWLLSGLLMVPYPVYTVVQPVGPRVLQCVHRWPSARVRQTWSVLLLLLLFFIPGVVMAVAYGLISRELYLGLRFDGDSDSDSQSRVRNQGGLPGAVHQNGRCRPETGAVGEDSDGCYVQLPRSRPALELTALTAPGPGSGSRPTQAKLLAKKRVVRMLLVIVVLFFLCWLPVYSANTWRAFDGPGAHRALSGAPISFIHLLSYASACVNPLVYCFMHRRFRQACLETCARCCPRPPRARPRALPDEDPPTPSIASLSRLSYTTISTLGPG

[10] = target: Somatostatin receptor (Mus musculus) (UniProt P30935+O08858+P30875+P30873+P49660); experiment: Displacement of [125I]-TYR somatostatin from At-T-20 (mouse pituitary) cell membrane expressing somatostatin receptor; type: cell membranes; settings: Pituitary gland cell; concentration not given here
Somatostatin receptor (Mus musculus), sequence (P30935 whole entry): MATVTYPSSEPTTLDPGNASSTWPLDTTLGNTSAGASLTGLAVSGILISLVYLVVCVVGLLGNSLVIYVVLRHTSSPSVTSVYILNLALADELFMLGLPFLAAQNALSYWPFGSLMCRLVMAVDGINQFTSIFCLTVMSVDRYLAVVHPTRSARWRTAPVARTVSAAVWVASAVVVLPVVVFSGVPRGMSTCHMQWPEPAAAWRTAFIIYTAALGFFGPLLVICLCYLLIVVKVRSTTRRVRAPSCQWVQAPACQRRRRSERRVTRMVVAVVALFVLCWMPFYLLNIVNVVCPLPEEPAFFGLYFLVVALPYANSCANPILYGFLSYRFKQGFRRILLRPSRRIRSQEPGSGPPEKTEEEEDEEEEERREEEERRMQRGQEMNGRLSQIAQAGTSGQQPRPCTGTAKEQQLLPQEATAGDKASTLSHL
Somatostatin receptor (Mus musculus), sequence (O08858 whole entry): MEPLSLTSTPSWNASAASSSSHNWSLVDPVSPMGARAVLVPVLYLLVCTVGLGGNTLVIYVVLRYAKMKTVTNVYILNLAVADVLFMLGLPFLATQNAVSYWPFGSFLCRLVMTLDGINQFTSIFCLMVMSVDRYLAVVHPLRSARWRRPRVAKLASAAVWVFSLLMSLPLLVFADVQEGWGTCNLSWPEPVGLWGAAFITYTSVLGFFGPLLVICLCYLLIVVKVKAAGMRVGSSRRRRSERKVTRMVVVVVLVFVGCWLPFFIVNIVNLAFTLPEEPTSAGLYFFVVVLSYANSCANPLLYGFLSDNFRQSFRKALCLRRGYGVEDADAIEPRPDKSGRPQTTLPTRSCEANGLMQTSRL
Somatostatin receptor (Mus musculus), sequence (P30875 whole entry): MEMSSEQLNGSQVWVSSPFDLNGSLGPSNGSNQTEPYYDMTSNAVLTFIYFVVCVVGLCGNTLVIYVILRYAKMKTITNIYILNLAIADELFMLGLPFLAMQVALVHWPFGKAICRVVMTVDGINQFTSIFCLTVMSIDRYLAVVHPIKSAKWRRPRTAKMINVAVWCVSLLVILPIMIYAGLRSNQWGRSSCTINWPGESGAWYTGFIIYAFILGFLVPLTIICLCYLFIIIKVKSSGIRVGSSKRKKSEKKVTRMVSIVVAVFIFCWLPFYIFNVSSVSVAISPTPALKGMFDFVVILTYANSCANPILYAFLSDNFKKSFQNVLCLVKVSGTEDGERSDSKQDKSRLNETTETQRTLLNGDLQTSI
Somatostatin receptor (Mus musculus), sequence (P30873 whole entry): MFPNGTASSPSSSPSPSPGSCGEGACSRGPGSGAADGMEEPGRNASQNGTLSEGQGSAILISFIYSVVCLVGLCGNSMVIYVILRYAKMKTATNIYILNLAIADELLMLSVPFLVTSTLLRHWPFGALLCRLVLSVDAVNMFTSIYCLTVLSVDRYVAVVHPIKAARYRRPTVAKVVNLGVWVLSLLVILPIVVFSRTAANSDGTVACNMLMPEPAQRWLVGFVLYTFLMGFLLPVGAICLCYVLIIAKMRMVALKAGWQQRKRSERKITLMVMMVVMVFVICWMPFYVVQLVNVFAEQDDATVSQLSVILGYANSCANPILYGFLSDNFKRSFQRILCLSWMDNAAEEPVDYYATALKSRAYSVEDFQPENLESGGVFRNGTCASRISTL
Somatostatin receptor (Mus musculus), sequence (P49660 with tags, fused parts or gaps): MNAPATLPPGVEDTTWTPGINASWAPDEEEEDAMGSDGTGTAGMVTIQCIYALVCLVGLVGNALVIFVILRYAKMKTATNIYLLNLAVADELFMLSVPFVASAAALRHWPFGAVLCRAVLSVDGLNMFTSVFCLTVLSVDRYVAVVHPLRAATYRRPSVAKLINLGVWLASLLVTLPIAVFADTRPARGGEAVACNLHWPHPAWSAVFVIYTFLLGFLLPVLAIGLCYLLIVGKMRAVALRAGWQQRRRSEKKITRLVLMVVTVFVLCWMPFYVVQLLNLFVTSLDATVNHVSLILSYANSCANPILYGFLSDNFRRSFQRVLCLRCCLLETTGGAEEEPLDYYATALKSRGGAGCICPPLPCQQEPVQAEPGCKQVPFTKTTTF

[11] = target: T2, C-X-C chemokine receptor type 2; experiment: Compound binding was evaluated using an SPA assay with recombinant human [125I]IL-8 and membranes prepared from Sf9 cells expressing human C-X-C chemokine receptor type 2; type: cell membranes

O=C(Nc1ccc(F)cc1)c1ccc(Cl)[n+]([O-])c1
inhibition [1]: 14%
IC50 [2]: 1 µM
IC50 (Homo sapiens [3]): 1.1 µM
IC50 (Homo sapiens [4]): > 40 µM
inhibition [5]: -1%
inhibition [6]: 15%
inhibition [7]: 68%
inhibition [8]: 85%
inhibition [9]: 11%
inhibition [10]: -2%

O=C(NC1CCCCC1)c1ccc(Cl)[n+]([O-])c1
IC50 [2]: > 20 µM
IC50 (Homo sapiens [3]): > 20 µM

O=C(O)c1cccc(S(=O)(=O)c2ccc(C(=O)Nc3ccc(F)cc3)c[n+]2[O-])c1
IC50 [2]: 0.032 µM
IC50 (Homo sapiens [3]): > 20 µM

CS(=O)(=O)c1ccc(C(=O)Nc2ccc(F)cc2)c[n+]1[O-]
inhibition [1]: 8%
IC50 [2]: 0.13 µM
IC50 (Homo sapiens [3]): 2 µM
IC50 (Homo sapiens [4]): 9.6 µM
inhibition [6]: 58%
inhibition [7]: 73%
inhibition [8]: 97%
inhibition [9]: 40%
inhibition [10]: 60%

O=C(Nc1ccc(F)cc1)c1ccc(S(=O)(=O)c2ccccc2)[n+]([O-])c1
IC50 [2]: 0.09 µM
IC50 (Homo sapiens [3]): > 20 µM

CC(C)S(=O)(=O)c1ccc(C(=O)Nc2ccc(F)cc2)c[n+]1[O-]
IC50 [2]: 0.4 µM
IC50 (Homo sapiens [3]): 2 µM

O=C(NC(c1ccccc1)c1ccccc1)c1ccc(Cl)[n+]([O-])c1
IC50 [2]: > 20 µM
IC50 (Homo sapiens [3]): 0.83 µM

CCN(CC)CCCCNc1nc2cc(Cl)c(Cl)cc2nc1-c1ccc(-c2cccs2)s1
IC50 [11]: 0.11 µM
IC50 (Homo sapiens [3]): 0.17 µM

CC(C)(C)c1ccc(NC(=O)c2ccc(Cl)[n+]([O-])c2)cc1
IC50 [2]: > 20 µM
IC50 (Homo sapiens [3]): 1.3 µM

O=C(Nc1ccc(F)cc1)c1ccc(S(=O)(=O)C2CCCC2)[n+]([O-])c1
inhibition [1]: -2%
IC50 [2]: 0.46 µM
IC50 (Homo sapiens [3]): 1.9 µM
inhibition [5]: 4%
inhibition [6]: -1%
inhibition [7]: 8%
inhibition [8]: 60%
inhibition [9]: 1%

O=C(Nc1ccc(I)cc1)c1ccc(Cl)[n+]([O-])c1
IC50 [2]: > 20 µM
IC50 (Homo sapiens [3]): 0.5 µM

O=C(NCc1ccc(F)cc1)c1ccc(Cl)[n+]([O-])c1
IC50 [2]: > 20 µM
IC50 (Homo sapiens [3]): > 20 µM

COc1ccc(NC(=O)c2ccc(Cl)[n+]([O-])c2)cc1
IC50 [2]: > 20 µM
IC50 (Homo sapiens [3]): > 20 µM

O=C(Nc1ccccc1O)c1ccc(Cl)[n+]([O-])c1
IC50 [2]: > 20 µM
IC50 (Homo sapiens [3]): 4.2 µM

N#Cc1ccc(NC(=O)Nc2ccccc2Br)c2nn[nH]c12
IC50 (Homo sapiens [3]): 0.01 µM

O=C(Nc1ccc(F)cc1)c1ccc(S(=O)(=O)Cc2ccccc2)[n+]([O-])c1
inhibition [1]: 8%
IC50 [2]: 0.28 µM
IC50 (Homo sapiens [3]): 1 µM
IC50 (Homo sapiens [4]): 13 µM
inhibition [6]: 32%
inhibition [7]: 9%
inhibition [8]: 77%
inhibition [9]: 29%
inhibition [10]: 38%

CCS(=O)(=O)c1ccc(C(=O)Nc2ccc(F)cc2)c[n+]1[O-]
inhibition [1]: 15%
IC50 [2]: 0.13 µM
IC50 (Homo sapiens [3]): 3.3 µM
IC50 (Homo sapiens [4]): 13.3 µM
inhibition [5]: 3%
inhibition [6]: 41%
inhibition [7]: 8%
inhibition [8]: 97%
inhibition [9]: 14%
